Source: patent EP0365087A1, “Immunotoxins for the treatment or prophylaxis of auto-immune diseases” (priority 1988, dated 1990)
No end group written: not given here.

Test system: male Lewis-rats
Test: DTH ear swelling after 65 kD-protein challenge in rats with adjuvant arthritis
Assay type: in vivo
Details: 0.01 mg/kg injections day 0-5 and day 8-12; 10 µg 65 kD-protein into ear day 22, swelling day 24; group average

TAVVALELQ-OH [peptide I, Thr-Ala-Val-Val-Ala-Leu-Glu-Leu-Gln-OH]
% swelling: 2.8 ± 3.4%
